From patent EP0364819A2, “LHRH analogs” (The Administrators of The Tulane Educational Fund, priority 1988, dated 1990)

Tests used:
[1] = prior art analogues with Chlorambucil as cytotoxic moiety; cited from earlier work
[2] = tested on: membrane receptors of human prostate cancer; test: Receptor binding to human prostate cancer membranes with 125I-labeled [D-Trp6]LHRH; conditions: first receptor class (high affinity binding sites)
Procedure: (§1) (c)Affinity for peptides to human prostate and breast cancer cell membranes.
(§2) This is determined by using labelled LHRH and [D-Trp⁶]LHRH. The assay is carried out similarly to that described by T. Kadar et al., Proc. Natl. Acad. Sci. USA, 85, 890-894 (1988).

[3] = tested on: membrane receptors of Dunning tumor; test: Receptor binding to Dunning tumor membranes with 125I-labeled [D-Trp6]LHRH; conditions: first receptor class (high affinity binding sites); rat Dunning tumor
Procedure: as §2

[4] = molecular target: T1, membrane receptors of human breast cancer cells (Homo sapiens, UniProt P30968); test: Receptor binding to human breast cancer cell membranes with 125I-labeled [D-Trp6]LHRH; conditions: Table 2, antagonistic analogues, high affinity binding sites, ¹²⁵l-labeled [D-Trp⁶]LHRH
T1 construct: human prostate and breast cancer cell membranes; endogenous in cells
T1 sequence (P30968 1-328): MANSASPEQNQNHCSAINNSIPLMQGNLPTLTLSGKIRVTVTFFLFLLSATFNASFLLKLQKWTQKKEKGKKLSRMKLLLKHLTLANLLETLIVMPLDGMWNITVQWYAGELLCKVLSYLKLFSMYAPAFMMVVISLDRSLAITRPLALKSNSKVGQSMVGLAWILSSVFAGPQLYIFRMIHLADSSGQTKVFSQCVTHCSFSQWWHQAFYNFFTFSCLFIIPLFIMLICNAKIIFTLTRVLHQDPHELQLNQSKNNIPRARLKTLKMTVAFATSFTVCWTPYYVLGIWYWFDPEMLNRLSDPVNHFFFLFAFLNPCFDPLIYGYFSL
Procedure: as §1, §2
(§3) Table 2 presents the antiovulatory activity of the claimed compounds having LHRH-inhibiting properties. The inhibitory action was determined in vivo, in 4-day cycling rats as described [A. Corbin and C. W. Beattie, Endocr. Res. Commun., 2, 1-23 (1975)]. Affinities of the claimed compounds to membrane receptors of rat pituitary and human breast cancer cells are also given in Tables 1 and 2 as determined by using [[…],D-Trp⁶]LHRH.

[5] = molecular target: T2, membrane receptors of rat pituitary (Rattus norvegicus, UniProt P30969); test: Receptor binding to rat pituitary membranes with 125I-labeled [D-Trp6]LHRH; conditions: Table 2, antagonistic analogues; high affinity binding sites; pituitary of male rats; ¹²⁵l-labeled [D-Trp⁶]LHRH
T2 construct: membrane receptors of rat pituitary; from tissue; host or cells: rat pituitary membranes
T2 sequence (P30969 1-327): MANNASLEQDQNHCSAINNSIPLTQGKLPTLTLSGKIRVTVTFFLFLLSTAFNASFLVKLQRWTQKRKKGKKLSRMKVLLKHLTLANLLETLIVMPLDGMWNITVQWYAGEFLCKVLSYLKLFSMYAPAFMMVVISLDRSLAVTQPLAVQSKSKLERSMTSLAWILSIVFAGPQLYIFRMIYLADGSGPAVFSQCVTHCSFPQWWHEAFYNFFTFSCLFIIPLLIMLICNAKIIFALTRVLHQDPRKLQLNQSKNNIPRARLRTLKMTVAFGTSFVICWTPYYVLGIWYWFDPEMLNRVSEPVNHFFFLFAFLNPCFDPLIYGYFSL
Procedure: as §2, §3

[6] = tested on: 4-day cycling rats; test: In vivo antiovulatory activity in 4-day cycling rats; conditions: 4-day cyclic rats
Procedure: This activity of the peptides is determined in 4-day-cycling rats as described [A. Corbin and C. W.Beattie, Endocr. Res. Commun. 2, 1-23(1975)].
as §3

Row | Compound | activities (LHRH agonist or antagonist) [1] | Binding affinity, Ka1, for membrane receptors of cancer cells [4] | Binding affinity, Ka1, for membrane receptors of pituitary [5] | further results
1 | [Chlorambucil-D-Phe¹,D-Phe²,D-Trp³ʼ⁶]LHRH | practically inactive | – | – | –
2 | [Chlorambucil-D-Leu²,D-Leu³,D-Ala⁶]LHRH (2-10) | moderate activities | – | – | –
3 | CC(C)C[C@H](NC(=O)[C@@H](Cc1c[nH]c2ccccc12)NC(=O)[C@H](Cc1ccc(O)cc1)NC(=O)[C@H](CO)NC(=O)[C@H](Cc1c[nH]c2ccccc12)NC(=O)[C@H](Cc1c[nH]cn1)NC(=O)[C@@H]1CCC(=O)N1)C(=O)N[C@@H](CCCNC(=N)N)C(=O)N1CCC[C@H]1C(=O)NCC(N)=O [[D-Trp⁶]-LHRH, reference compound] | – | – | – | Human prostate cancer* Ka1 [2]: 0.04 nM⁻¹; Dunning tumor* Ka1 [3]: 1.87 nM⁻¹
4 | Ac-D-Nal(2)-D-Phe(4Cl)-D-Trp-Ser-Arg-D-Lys[(Ni⁺⁺)(SAL)₂(DL-A₂pr)]-Leu-Arg-Pro-D-Ala-NH₂ [Example XV] | – | 4.418 nM-¹ | 8.676 nM-¹ | Hormonal activity* %Blockade of ovulation ([6]; Dose 3 µg/rat): 20%
5 | Ac-D-Nal(2)-D-Phe(4Cl)-D-Trp-Ser-Arg-D-Lys[(Cu⁺⁺)(POLP)₂(DL-A₂pr)]-Leu-Arg-Pro-D-Ala-NH₂ [Example XXII] | – | 1.337 nM-¹ | 2.901 nM-¹ | Hormonal activity* %Blockade of ovulation ([6]; Dose 10 µg/rat): 60%
6 | Ac-D-Nal(2)-D-Phe(4Cl)-D-Pal(3)-Ser-Arg-D-Lys[(Cu⁺⁺)(POLP)₂(DL-A₂pr)]-Leu-Arg-Pro-D-Ala-NH₂ [Example XX] | – | 2.436 nM-¹ | 5.250 nM-¹ | Hormonal activity* %Blockade of ovulation ([6]; Dose 3 µg/rat): 80%
7 | Ac-D-Nal(2)-D-Phe(4Cl)-D-Pal(3)-Ser-Arg-D-Mel-Leu-Arg-Pro-D-Ala-NH₂ [Example II] | – | 3.967 nM-¹ | 7.190 nM-¹ | Human prostate cancer* Ka1 [2]: 0.7 nM⁻¹; Dunning tumor* Ka1 [3]: 1.68 nM⁻¹
8 | [D-Lys(Chlorambucil)⁶] LHRH | moderate activities | – | – | –
